In publication PMC11371747, “The role of l-leucovorin uptake and metabolism in the modulation of 5-fluorouracil efficacy and antifolate toxicity” (Frontiers in Pharmacology, 2024):

Experiments:
folate receptor α (FRα) = target: T1, folate receptor α (FRα) (Homo sapiens, UniProt P15328); assay: Intact cell competitive binding assay, displacement of [3H]-folic acid from FRα in KB cells
T1 construct: endogenous in cells; host or cells: KB cells (FRα++)
Procedure: (§1) In order to determine whether the LV isomers were substrates for either folate receptor α (FRα), RFC and/or PCFT, we used model systems with established overexpression of these receptors or transporters ([Westerhof et al., 1995a]; [Westerhof et al., 1995b]; [Lasry et al., 2008]; [Van der Heijden et al., 2009]).
For FRα we used KB cells ([Westerhof et al., 1995b]). An intact cell binding assay for competitive binding was performed as described previously ([Westerhof et al., 1995a]). Briefly, cells were washed with Hanks balanced salt solution and 6 mM glucose (HBSS, pH 7.4), suspended in 1 mL of this solution (1*10^6 for KB cells) and incubated at 4°C for 15 min with 100 pmol [^3H]-folic acid [(^3H)-FA], in the presence and absence of unlabelled folic acid or LV stereoisomers. Cells were collected by centrifugation and analysed for radioactivity. Relative affinities for FRα were defined as the inverse ratio of compound to displace 50% of radioactive folic acid from FRα. The relative affinity of folic acid was set at 1.

[1] = target: T2, reduced folate carrier (RFC/SLC19A1) (Homo sapiens, UniProt P41440); assay: Inhibition of RFC-mediated [3H]-l-LV influx in CEM-7A cells; format: cell-based; settings: 5 µM [3H]-l-LV, 2 min, 37°C, read-out: Concentration for 50% inhibition of [3H]-l-LV influx (RFC)
T2 construct: CEM-7A cells, which display 30-fold RFC overexpression relative to wild-type CCRF-CEM cells; endogenous in cells; host or cells: CEM-7A (CCRF-CEM variant, RFC+++ 30-fold)
T2 sequence (P41440 1-591): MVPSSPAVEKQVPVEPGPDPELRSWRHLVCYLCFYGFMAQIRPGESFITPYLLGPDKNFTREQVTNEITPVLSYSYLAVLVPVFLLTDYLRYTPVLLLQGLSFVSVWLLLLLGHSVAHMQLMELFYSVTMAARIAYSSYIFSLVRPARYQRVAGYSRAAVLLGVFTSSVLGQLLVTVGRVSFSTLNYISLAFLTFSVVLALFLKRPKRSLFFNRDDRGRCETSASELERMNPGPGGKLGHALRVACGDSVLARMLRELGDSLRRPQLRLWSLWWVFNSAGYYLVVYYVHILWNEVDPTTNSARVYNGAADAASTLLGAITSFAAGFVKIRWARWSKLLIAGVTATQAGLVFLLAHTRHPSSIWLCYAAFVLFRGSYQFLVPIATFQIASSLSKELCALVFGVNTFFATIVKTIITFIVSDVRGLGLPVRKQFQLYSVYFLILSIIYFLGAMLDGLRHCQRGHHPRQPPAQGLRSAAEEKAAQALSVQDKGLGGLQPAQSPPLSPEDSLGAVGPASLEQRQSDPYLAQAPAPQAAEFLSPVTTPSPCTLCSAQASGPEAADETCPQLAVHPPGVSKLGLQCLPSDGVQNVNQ
Procedure: as §1
CEM-7A cells (2 × 10^6) were suspended in 1 mL HBSS and the assay was initiated by addition of 25 μL 200 μM [^3H]-l-LV; 5,000 pmol (i.e., 5 μM final concentration). Incubations proceeded for 2 min at 37°C in the absence and presence of increasing amounts of unlabelled LV/antifolate drug. Blanks consisted of a separate incubation at 4°C or incubation with 100-fold molar excess of unlabelled l-LV. [^3H]-l-LV influx was terminated by adding 9 mL ice-cold HBSS, centrifugation and an additional wash of the cells with 10 mL ice-cold buffer. Cell pellets were then assessed for radioactivity. Relative affinities for RFC are expressed as the concentration of unlabelled drug necessary to inhibit [^3H]-l-LV uptake by 50%.

human PCFT = target: T3, human PCFT (Homo sapiens, UniProt Q96NT5); assay: Inhibition of PCFT-mediated [3H]-l-LV influx in CHO/C5-PCFT cells; format: cell-based, Chinese hamster (CHO cells); settings: CHO/C5/PCFT cells, 2.5 µM [3H]-l-LV, pH 5.5, 3 min; read-out: Concentration for 50% inhibition of PCFT-mediated [3H]-l-LV influx
T3 construct: expressed in transfected cells; host or cells: CHO/C5 (RFC-deficient Chinese hamster ovary cells, no PCFT)
T3 sequence (Q96NT5 1-459): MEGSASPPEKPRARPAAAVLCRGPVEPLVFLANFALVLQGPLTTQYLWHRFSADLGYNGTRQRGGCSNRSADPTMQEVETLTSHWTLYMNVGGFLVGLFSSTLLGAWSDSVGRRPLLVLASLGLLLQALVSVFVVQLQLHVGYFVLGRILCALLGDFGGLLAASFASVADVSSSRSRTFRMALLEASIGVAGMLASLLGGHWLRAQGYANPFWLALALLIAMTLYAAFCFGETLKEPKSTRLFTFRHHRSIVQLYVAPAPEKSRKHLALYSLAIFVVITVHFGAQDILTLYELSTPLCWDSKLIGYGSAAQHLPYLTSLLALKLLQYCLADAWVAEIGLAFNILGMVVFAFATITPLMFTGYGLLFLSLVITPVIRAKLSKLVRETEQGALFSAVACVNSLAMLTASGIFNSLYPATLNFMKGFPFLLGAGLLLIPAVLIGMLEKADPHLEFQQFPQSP
Procedure: as §1
The competitive inhibition by 2.5 μM [^3H]-l-LV influx of PCFT was measured essentially as described for the RFC assay, except that the incubation time was 3 min, at pH 5.5 (the optimal pH for PCFT) and pH 7.4 with increasing amounts of unlabelled LV stereoisomers/antifolate drug. For PCFT too, relative affinities were expressed as the concentration of unlabelled drug necessary to inhibit 50% of [^3H]-l-LV influx.

[2] = tested on: unselected cell lines with a different pathology; design: method as in Van der Wilt and Peters, 1994; settings: large panel of unselected cell lines with a different pathology; ref Van der Wilt and Peters, 1994; cited from earlier work

T1 sequence (P15328 25-257): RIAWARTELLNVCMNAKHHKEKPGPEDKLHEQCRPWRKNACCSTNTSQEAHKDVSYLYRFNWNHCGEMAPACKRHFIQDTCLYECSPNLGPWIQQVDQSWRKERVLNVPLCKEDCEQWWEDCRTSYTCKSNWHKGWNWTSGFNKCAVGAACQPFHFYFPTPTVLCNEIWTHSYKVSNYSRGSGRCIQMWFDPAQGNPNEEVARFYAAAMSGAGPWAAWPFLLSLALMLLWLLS

**Q.** For Nc1nc2c(c(=O)[nH]1)N(C=O)C(CNc1ccc(C(=O)N[C@@H](CCC(=O)O)C(=O)O)cc1)CN2 (mixture of isomers) [dl-LV], which “50% [3H]-FA displacement, fold lower concentration than l-LV” value (folate receptor α (FRα)) is on record?
**A.** 2 fold

**Q.** And the “Relative affinity for FRα” value (folate receptor α (FRα); 100 pmol [3H]-FA, inverse ratio of amount of drug displacing 50% of [3H]-FA, FA set to 1)?
**A.** 0.041

**Q.** And the IC50 [1]?
**A.** 7.3 µM

**Q.** And the IC50 (human PCFT)?
**A.** 4.5 µM

**Q.** What about the “Enhancement of the effect of 5FU by dl-LV” value [2] of the same compound?
**A.** about 2 fold
